Assay results published in patent publication US20250368623A1, “PYRIDAZINONE-DERIVED COMPOUNDS FOR THE MODULATION OF MYC AND FOR MEDICAL USES” (GENETIC INTELLIGENCE, INC, priority 2022, published 2025).

What was measured:
Format in all cases: cell-based
MYC protein [1] = test: Western blot of MYC protein in human cancer cell lines; conditions: about 1 μM, 2-day incubation, e.g., A549 or HepG2, GAPDH loading control, vs DMSO
Experimental: The level of reduction of MYC protein following treatment with test compounds is also assessed by Western blot according to the following protocol. The human cancer cell lines (e.g., A549 or HepG2) are seeded at 20,000 cells per well in a 96-well plate. After 1 day, the cells are treated with test compounds at a final concentration of about 1 μM. After a 2-day incubation period, the supernatant is removed from the wells and RIPA buffer is added to create cell lysates. The lysates are analyzed by Western blot and probed with a MYC-specific antibody (e.g., Proteintech 10828-1-AP) together with a GAPDH-specific antibody (e.g., Proteintech 10494-1-AP) to serve as loading control. The intensities of Western blot bands are quantified by FIJI (Image J). The relative expression value of MYC following treatment with a test compound is calculated by dividing the intensity of the MYC band of the sample with the intensity of its own GAPDH band. The value so obtained is presented as a percentage of that of the no-compound, solvent only (DMSO)-treated sample. A lower percentage of MYC protein in a sample with respect to the DMSO-treated sample indicates greater percentage reduction in MYC protein level due to the test compound, and vice versa.

HepG2 [2] = test: CCK-8 cell viability assay, HepG2; conditions: Homo sapiens; CCK-8, HepG2, 2-day or 3-day incubation, cytotoxic effect
Experimental: The effect of test compounds on cell viability is determined using the CCK-8 assay kit (Dojindo CK04-1000) according to the following protocol. The human cancer cell lines (e.g., A549, HepG2, JeKo-1, MDA-MB-231, etc.) and non-cancer human cell lines (e.g., HEK-293, HaCaT, etc.), are seeded at 20,000 cells per well in a 96-well plate. After 1 day, the cells are treated with test compounds at various final concentrations (e.g., 10 nM, 31.6 nM, 100 nM, 316 nM, 1 μM, 3.16 μM, 10 μM, 20 μM, etc.). After a 2-day or 3-day incubation period, 10 μL of CCK-8 solution, which contains the WST-8 dye, is added to each well according to the kit manufacturer's protocol. After incubation for 1-4 hours, the absorbance at 450 nm is measured using a microplate reader. The absorbance at 450 nm measures the amount of WST-8 that is reduced to WST-8 formazan by cellular dehydrogenases, which is directly proportional to the number of living cells. The cytotoxic effect of test compounds at different concentrations is calculated by subtracting from 1 the ratio of absorbance of the compound-treated sample at 450 nm to that of the no-compound, solvent only (DMSO)-treated sample. […] The IC50 values for the cytotoxic effect of each test compound in A549, HepG2, JeKo-1, and/or MDA-MB-231 cells are determined by plotting a dose-response curve to calculate the concentration of test compound that produces half of the maximum cytotoxic effect.

MYC protein [3] = test: MYC HTRF assay, MYC protein level in human cell lines; conditions: about 20 μM, 2-day incubation, human cell lines (e.g., A549, HepG2), vs DMSO-treated sample
Experimental: The MYC homogenous time-resolved fluorescence (HTRF) assay kit (CisBio/Perkin Elmer 63ADK053PEG) is used to quantify the level of MYC protein in human cell lines (e.g., A549, HepG2) following treatment with test compounds, according to the following protocol. Human cells cultured in DMEM-10% FBS media are seeded at 20,000 cells per well in a 96-well plate. After 1 day, the cells are treated with test compounds at a final concentration of about 20 μM. After a 2-day incubation period, the supernatant is removed from the wells and the HTRF assay is carried out according to the kit manufacturer's protocol. In brief, lysis buffer #4 is added to create cell lysates. 10 μL of cell lysate is added to 10 μL of premixed antibody solution (anti-human My c-Eu cryptate antibody and anti-human Myc-d2 antibody) prepared in detection buffer #3 in a 384-well low-volume white-walled plated. After 3 h of incubation, fluorescence readings are taken at the emission wavelengths of donor and acceptor fluorophores (620 nm and 665 nm respectively) using a HTRF-compatible plate reader. The ratio of acceptor and donor fluorescence emission signals for each sample is calculated by dividing the fluorescence signal at 665 nm by the signal at 620 nm, and further normalized by dividing with the concentration of total protein in that sample as determined by the BCA assay. The values so obtained are presented as a percentage of that of the no-compound, solvent only (DMSO)-treated samples. A lower percentage of MYC protein in a sample with respect to the DMSO-treated sample indicates greater percentage reduction in MYC protein level due to the test compound, and vice versa.

MYC RNA = test: RT-qPCR of MYC RNA in human cancer cell lines; conditions: 24 h, about 1 μM, 1-day incubation, e.g., A549, HepG2, beta-actin normalized, vs DMSO, read-out: % reduction of MYC RNA
Experimental: The level of reduction of MYC RNA following treatment with test compounds is assessed using RT-qPCR according to the following protocol. The human cancer cell lines (e.g., A549, HepG2) are seeded at 20,000 cells per well in a 96-well plate. After 1 day, the cells are treated with test compounds at a final concentration of about 1 μM. After a 1-day incubation period, the supernatant is removed from the wells and lysis solution from the Cells-to-CT 1-Step Power SYBR Green Kit (Invitrogen A25599) is added to create cell lysates, according to the kit manufacturer's protocol. The kit manufacturer's protocol is then followed to perform RT-qPCR for each sample using a pair of MYC-specific primers (e.g., SEQ ID NO: 4 and SEQ ID NO: 5) to detect MYC RNA, as well as a pair of beta-actin-specific primers (e.g., SEQ ID NO: 6 and SEQ ID NO: 7) to detect beta-actin RNA, which serves as a loading control. The relative expression levels of MYC and beta-actin RNAs are calculated using a standard curve generated from a dilution series of untreated cell lysates. The normalized level of MYC RNA following treatment with a test compound is calculated by dividing the relative expression level of MYC in the sample by the relative expression level of beta actin in the same sample. The value so obtained is presented as a percentage of that of the no-compound, solvent only (DMSO)-treated sample. A lower percentage of MYC RNA in a sample with respect to the DMSO-treated sample indicates greater percentage reduction in MYC RNA levels due to the test compound, and vice versa.

A549 = test: CCK-8 cell viability assay, A549; conditions: Homo sapiens; CCK-8, A549, 2-day or 3-day incubation, cytotoxic effect
Experimental: The effect of test compounds on cell viability is determined using the CCK-8 assay kit (Dojindo CK04-1000) according to the following protocol. The human cancer cell lines (e.g., A549, HepG2, JeKo-1, MDA-MB-231, etc.) and non-cancer human cell lines (e.g., HEK-293, HaCaT, etc.), are seeded at 20,000 cells per well in a 96-well plate. After 1 day, the cells are treated with test compounds at various final concentrations (e.g., 10 nM, 31.6 nM, 100 nM, 316 nM, 1 μM, 3.16 μM, 10 μM, 20 μM, etc.). After a 2-day or 3-day incubation period, 10 μL of CCK-8 solution, which contains the WST-8 dye, is added to each well according to the kit manufacturer's protocol. After incubation for 1-4 hours, the absorbance at 450 nm is measured using a microplate reader. The absorbance at 450 nm measures the amount of WST-8 that is reduced to WST-8 formazan by cellular dehydrogenases, which is directly proportional to the number of living cells. The cytotoxic effect of test compounds at different concentrations is calculated by subtracting from 1 the ratio of absorbance of the compound-treated sample at 450 nm to that of the no-compound, solvent only (DMSO)-treated sample. […]

JeKo-1 = test: CCK-8 cell viability assay, JeKo-1; conditions: Homo sapiens; CCK-8, JeKo-1, 2-day or 3-day incubation, cytotoxic effect
Experimental: (§1) The effect of test compounds on cell viability is determined using the CCK-8 assay kit (Dojindo CK04-1000) according to the following protocol. The human cancer cell lines (e.g., A549, HepG2, JeKo-1, MDA-MB-231, etc.) and non-cancer human cell lines (e.g., HEK-293, HaCaT, etc.), are seeded at 20,000 cells per well in a 96-well plate. After 1 day, the cells are treated with test compounds at various final concentrations (e.g., 10 nM, 31.6 nM, 100 nM, 316 nM, 1 μM, 3.16 μM, 10 μM, 20 μM, etc.). After a 2-day or 3-day incubation period, 10 μL of CCK-8 solution, which contains the WST-8 dye, is added to each well according to the kit manufacturer's protocol. After incubation for 1-4 hours, the absorbance at 450 nm is measured using a microplate reader. The absorbance at 450 nm measures the amount of WST-8 that is reduced to WST-8 formazan by cellular dehydrogenases, which is directly proportional to the number of living cells. The cytotoxic effect of test compounds at different concentrations is calculated by subtracting from 1 the ratio of absorbance of the compound-treated sample at 450 nm to that of the no-compound, solvent only (DMSO)-treated sample. A higher number indicates a greater cytotoxic effect of the test compound on cells (corresponding to a greater reduction in cellular dehydrogenase activity), and vice versa. The IC50 values for the cytotoxic effect of each test compound in A549, HepG2, JeKo-1, and/or MDA-MB-231 cells are determined by plotting a dose-response curve to calculate the concentration of test compound that produces half of the maximum cytotoxic effect. The cytotoxic effect and IC50 of test compounds are also measured in a non-cancer human cell line (e.g., HEK-293, and/or HaCaT) as a proxy for healthy cells to determine the therapeutic window of the test compounds (i.e., the concentration range at which the test compounds selectively kill cancer cells but not healthy cells). The therapeutic index of a test compound is defined herein as its IC50 in HEK-293 cells divided by its IC50 in HepG2 cells.

MDA-MB-231 = test: CCK-8 cell viability assay, MDA-MB-231; conditions: Homo sapiens; CCK-8, MDA-MB-231, 2-day or 3-day incubation, cytotoxic effect
Experimental: as §1

HepG2 [4] = test: CellTiter-Glo 2.0 cell viability assay, HepG2; conditions: Homo sapiens, 48 h; CellTiter-Glo 2.0, HepG2, 2-day incubation
Experimental: (§2) The effect of test compounds on cell viability is also determined using the CellTiter-Glo 2.0 assay kit (Promega G9241) according to the following protocol. The human cancer cell line (e.g., HepG2) and a non-cancer human cell line (e.g., HEK-293), are seeded at 20,000 cells per well in a 96-well plate. After 1 day, the cells are treated with test compounds at various concentrations (e.g., 10 nM, 31.6 nM, 100 nM, 316 nM, 1 μM, 3.16 μM, 10 μM, 20 μM, etc.). After a 2-day incubation period, the CellTiter-Glo 2.0 assay is performed according to the kit manufacturer's protocol. […] The contents are mixed for 2 minutes on an orbital shaker to induce cell lysis, and incubated for 10 minutes at room temperature, following which the luminescent signal is measured using a microplate reader. […] The cytotoxic effect of test compounds at different concentrations is calculated by subtracting from 1 the ratio of the luminescence signal of the compound-treated sample to that of the no-compound, solvent only (DMSO)-treated sample. […] The IC50 values for the cytotoxic effect of each test compound in HepG2 cells are determined by plotting a dose-response curve to calculate the concentration of test compound that produces half of the maximum cytotoxic effect. […]

HEK-293 [5] = test: CellTiter-Glo 2.0 cell viability assay, HEK-293; conditions: Homo sapiens, HEK293, 48 h; CellTiter-Glo 2.0, HEK-293, 2-day incubation
Experimental: as §2

HEK-293 [6] = test: ApoTox-Glo Triplex assay (live-dead ratio), HEK-293; conditions: Homo sapiens, HEK293, 48 h, HEK-293, 2-day incubation
Experimental: The effects of test compounds on cell viability and apoptosis are determined using the ApoTox-Glo Triplex assay kit (Promega G6320) according to the following protocol. The human cancer cell line (e.g., HepG2) and a non-cancer human cell line (e.g., HEK-293), are seeded at 20,000 cells per well in a 96-well plate. After 1 day, the cells are treated with test compounds at various final concentrations (e.g., 10 nM, 31.6 nM, 100 nM, 316 nM, 1 μM, 3.16 μM, 10 μM, 20 μM, etc.). After a 2-day incubation period, the ApoTox-Glo Triplex assay is performed according to the kit manufacturer's protocol. […] After incubation for 30 minutes at 37° C., the fluorescence signal is measured at two wavelength sets (400Ex/505Em) and (485Ex/520Em) to assess live-cell protease activity and dead-cell protease activity respectively. […] After incubation for 30 minutes at room temperature, the luminescent signal is measured using a microplate reader. […]
The cytotoxic effect of test compounds according to the ApoTox-Glo Triplex assay is calculated as follows. The live-dead ratio is calculated by dividing the fluorescence signal for live-cell protease activity with the fluorescence signal for dead-cell protease activity. […]

SMILES	% reduction of MYC protein (MYC protein [1]) [%]	IC50 (HepG2 [2]) [µM]	inhibition at 1 µM (MYC RNA) [%]	other results
Cc1nc(N2CC(n3nc(-c4ccncc4)ccc3=O)C2)c2cnn(C)c2n1 [2-(1-(1,6-dimethyl-1H-pyrazolo[3,4-d]pyrimidin-4-yl)azetidin-3-yl)-6-(pyridin-4-yl)pyridazin-3(2H)-one]	19			
Cc1cncc(N2CCC(Cn3nc(-n4cncn4)ccc3=O)CC2)n1 [2-((1-(6-methylpyrazin-2-yl)piperidin-4-yl)methyl)-6-(1H-1,2,4-triazol-1-yl)pyridazin-3(2H)-one]		11.2		
O=c1ccc(-n2cccn2)nn1CC1CCN(c2ncnc3cc(F)ccc23)CC1 [2-((1-(7-fluoroquinazolin-4-yl)piperidin-4-yl)methyl)-6-(1H-pyrazol-1-yl)pyridazin-3(2H)-one]			12	% reduction of MYC protein (MYC protein [3]): 74%
O=c1ccc(-c2ccncc2)nn1CC1CN(c2ncnc3[nH]cnc23)C1 [2-((1-(9H-purin-6-yl)azetidin-3-yl)methyl)-6-(pyridin-4-yl)pyridazin-3(2H)-one]		6		
Cc1nc(C)c(-c2ccc(=O)n(CC3CCN(c4ncnc5[nH]cnc45)CC3)n2)s1 [2-((1-(9H-purin-6-yl)piperidin-4-yl)methyl)-6-(2,4-dimethylthiazol-5-yl)pyridazin-3(2H)-one]			1	% reduction of MYC protein (MYC protein [3]): 17%
O=c1ccc(-n2cncn2)nn1CC1CCN(c2ccc3nnc(C(F)(F)F)n3n2)CC1 [6-(1H-1,2,4-triazol-1-yl)-2-((1-(3-(trifluoromethyl)-[1,2,4]triazolo[4,3-b]pyridazin-6-yl)piperidin-4-yl)methyl)pyridazin-3(2H)-one]	29	5.7	20	
O=c1ccc(-n2cccn2)nn1CC1CCN(c2ccc3nnc(C(F)(F)F)n3n2)CC1 [6-(1H-pyrazol-1-yl)-2-((1-(3-(trifluoromethyl)-[1,2,4]triazolo[4,3-b]pyridazin-6-yl)piperidin-4-yl)methyl)pyridazin-3(2H)-one]	33	18.5	19	
Cc1nc(C)c(-c2ccc(=O)n(CC3CCN(c4ncnc5ncccc45)CC3(F)F)n2)s1 (stereo not shown) [6-(2,4-dimethyl-1,3-thiazol-5-yl)-2-(3,3-difluoro-1-pyrido[2,3-d]pyrimidin-4-ylpiperidin-4-yl)methylpyridazin-3-one]		0.3		IC50 (A549): 1.8 µM; IC50 (JeKo-1): 0.2 µM; IC50 (MDA-MB-231): 1 µM
Cc1nc(C)c(-c2ccc(=O)n(CC3CCN(c4ncnc5ncccc45)CC3F)n2)s1 (stereo not shown) [6-(2,4-dimethyl-1,3-thiazol-5-yl)-2-(3-fluoro-1-pyrido[2,3-d]pyrimidin-4-ylpiperidin-4-yl)methylpyridazin-3-one]		0.5		IC50 (JeKo-1): 0.3 µM; IC50 (MDA-MB-231): 1.1 µM
Cc1nc(N2CCC(Cn3nc(-c4sc(C)nc4C)ccc3=O)CC2)c2ccncc2n1 [6-(2,4-dimethylthiazol-5-yl)-2-((1-(2-methylpyrido[3,4-d]pyrimidin-4-yl)piperidin-4-yl)methyl)pyridazin-3(2H)-one]			5	% reduction of MYC protein (MYC protein [3]): 16%
Cc1cc(N2CCC(Cn3nc(-c4sc(C)nc4C)ccc3=O)CC2)ncn1 [6-(2,4-dimethylthiazol-5-yl)-2-((1-(6-methylpyrimidin-4-yl)piperidin-4-yl)methyl)pyridazin-3(2H)-one]			19	% reduction of MYC protein (MYC protein [3]): 19%
Cc1cc(C)n(-c2ccc(=O)n(C3CCN(c4nc5cccnc5n4C)CC3)n2)n1 [6-(3,5-dimethyl-1H-pyrazol-1-yl)-2-(1-(3-methyl-3H-imidazo[4,5-b]pyridin-2-yl)piperidin-4-yl)pyridazin-3(2H)-one]	24	5.3		
Cc1cc(C)n(-c2ccc(=O)n(CC3CN(c4ccc5nnc(C)n5n4)C3)n2)n1 [6-(3,5-dimethyl-1H-pyrazol-1-yl)-2-((1-(3-methyl-[1,2,4]triazolo[4,3-b]pyridazin-6-yl)azetidin-3-yl)methyl)pyridazin-3(2H)-one]	48		4	
CC(=O)O[C@H]1C(=O)[C@@]2(C)[C@H]([C@H](OC(=O)c3ccccc3)[C@]3(O)C[C@H](OC(=O)[C@H](O)[C@@H](NC(=O)c4ccccc4)c4ccccc4)C(C)=C1C3(C)C)[C@]1(OC(C)=O)CO[C@@H]1C[C@@H]2O [paclitaxel, reference compound]				IC50 (HepG2 [4]): 7.5 µM; IC50 (HEK-293 [5]): 27 µM; IC50 (HEK-293 [6]): 6.9 µM
